# Results as given in ChEMBL document CHEMBL5576084, “Development of chromone-thiazolidine-2,4-dione Knoevenagel conjugates as apoptosis inducing agents” (Bioorg Med Chem Lett, 2024).
# Activity calls are given as the source filed them. The rule behind the calls is not given here.
# What was measured:
# A549 [1] = assay: Induction of ROS generation in human A549 cells assessed as fold change at 6 uM by DCFDA-H2 fluorescent dye based flow cytometric analysis relative to control; format: functional
# A549 [2] = assay: Induction of apoptosis in human A549 cells assessed as late apoptotic cells at 9 uM by Annexin V-FITC/PI staining based flow cytometric analysis (reference value: 0.19 %); format: functional
# A549 [3] = assay: Induction of apoptosis in human A549 cells assessed as late apoptotic cells at 6 uM by Annexin V-FITC/PI staining based flow cytometric analysis (reference value: 0.19 %); format: functional
# A549 [4] = assay: Induction of apoptosis in human A549 cells assessed as appearance of shrunken cells with fragmented nucleus at 3 to 9 uM by DAPI staining based fluorescence microscopic analysis; format: functional, cell-based; settings: dose 3-9 µM
# A549 [5] = assay: Induction of ROS generation in human A549 cells assessed as fold change at 9 uM by DCFDA-H2 fluorescent dye based flow cytometric analysis relative to control; format: functional
# A549 [6] = assay: Induction of apoptosis in human A549 cells assessed as reduction in Bcl-2 expression at 9 uM by PI staining based flow cytometric analysis relative to control; format: functional; set-up: scale not given: the % may be the effect or the level left
# A549 [7] = assay: Induction of apoptosis in human A549 cells assessed as reduction in green intensity at 3 to 9 uM by acridine orange/EtBr staining based analysis; format: functional, cell-based; settings: dose 3-9 µM
# A549 [8] = assay: Induction of apoptosis in human A549 cells assessed as reduction in Bcl-2 expression at 3 uM by PI staining based flow cytometric analysis relative to control; format: functional; set-up: scale not given: the % may be the effect or the level left
# A549 [9] = assay: Induction of apoptosis in human A549 cells assessed as increase in necrotic cells by measuring red signals at 3 to 9 uM by acridine orange/EtBr staining based analysis; format: functional, cell-based; settings: dose 3-9 µM
# A549 [10] = assay: Induction of apoptosis in human A549 cells assessed as early apoptotic cells at 9 uM by Annexin V-FITC/PI staining based flow cytometric analysis (reference value: 0.32 %); format: functional
# A549 [11] = assay: Induction of DNA damage in human A549 cells assessed as increase in red fluorescence at 3 to 9 uM by acridine orange/EtBr staining based analysis; format: functional, cell-based; settings: dose 3-9 µM
# A549 [12] = assay: Induction of apoptosis in human A549 cells assessed as increase in late apoptotic cells by measuring orange red signals at 3 to 9 uM by acridine orange/EtBr staining based analysis; format: functional, cell-based; settings: dose 3-9 µM
# A549 [13] = assay: Induction of DNA damage in human A549 cells assessed as DNA condensation by measuring increase in fluorescence intensity at 3 to 9 uM by DAPI staining based fluorescence microscopic analysis; format: functional, cell-based; settings: dose 3-9 µM
# A549 [14] = assay: Induction of DNA damage in human A549 cells assessed as decrease in green fluorescence at 3 to 9 uM by acridine orange/EtBr staining based analysis; format: functional, cell-based; settings: dose 3-9 µM
# A549 [15] = assay: Induction of apoptosis in human A549 cells assessed as necrotic cells at 6 uM by Annexin V-FITC/PI staining based flow cytometric analysis (reference value: 0.46 %); format: functional
# HCT-116 = assay: Cytotoxicity against human HCT-116 cells assessed as inhibition of cell growth incubated for 48 hrs by MTT assay; format: functional, cell-based; settings: HCT-116, 48 h
# A549 [16] = assay: Induction of apoptosis in human A549 cells assessed as early apoptotic cells at 3 uM by Annexin V-FITC/PI staining based flow cytometric analysis (reference value: 0.32 %); format: functional
# A549 [17] = assay: Induction of apoptosis in human A549 cells assessed as increase in yellowish green intensity at 3 to 9 uM by acridine orange/EtBr staining based analysis; format: functional, cell-based; settings: dose 3-9 µM
# A549 [18] = assay: Induction of apoptosis in human A549 cells assessed as necrotic cells at 9 uM by Annexin V-FITC/PI staining based flow cytometric analysis (reference value: 0.46 %); format: functional
# A549 [19] = assay: Cell cycle arrest in human A549 cells assessed as accumulation of cells at G2/M phase at 9 uM by PI staining based flow cytometric analysis (reference value: 11.5 %); format: functional
# A549 [20] = assay: Induction of ROS generation in human A549 cells assessed as fold change at 3 uM by DCFDA-H2 fluorescent dye based flow cytometric analysis relative to control; format: functional
# A549 [21] = assay: Induction of apoptosis in human A549 cells assessed as necrotic cells at 3 uM by Annexin V-FITC/PI staining based flow cytometric analysis (reference value: 0.46 %); format: functional
# A549 [22] = assay: Cell cycle arrest in human A549 cells assessed as accumulation of cells at G2/M phase at 3 uM by PI staining based flow cytometric analysis (reference value: 11.5 %); format: functional
# HepG2 = assay: Cytotoxicity against human HepG2 cells assessed as inhibition of cell growth incubated for 48 hrs by MTT assay; format: functional, cell-based; settings: HepG2, 48 h
# A549 [23] = assay: Induction of apoptosis in human A549 cells assessed as late apoptotic cells at 3 uM by Annexin V-FITC/PI staining based flow cytometric analysis (reference value: 0.19 %); format: functional
# A549 [24] = assay: Cytotoxicity against human A549 cells assessed as inhibition of cell growth incubated for 48 hrs by MTT assay; format: functional, cell-based; settings: A549, 48 h
# MCF7 = assay: Cytotoxicity against human MCF7 cells assessed as inhibition of cell growth incubated for 48 hrs by MTT assay; format: functional, cell-based; settings: MCF7, 48 h
# [25] = Cytotoxicity against HEK293 cells assessed as inhibition of cell growth incubated for 48 hrs by MTT assay; format: toxicity, cell-based; settings: human
# A549 [26] = assay: Induction of apoptosis in human A549 cells assessed as reduction in Bcl-2 expression at 6 uM by PI staining based flow cytometric analysis relative to control; format: functional; set-up: scale not given: the % may be the effect or the level left
# SK-MEL-28 = assay: Cytotoxicity against human SK-MEL-28 cells assessed as inhibition of cell growth incubated for 48 hrs by MTT assay; format: functional, cell-based; settings: SK-MEL-28, 48 h
# A549 [27] = assay: Induction of apoptosis in human A549 cells assessed as early apoptotic cells at 6 uM by Annexin V-FITC/PI staining based flow cytometric analysis (reference value: 0.32 %); format: functional
# A549 [28] = assay: Cell cycle arrest in human A549 cells assessed as accumulation of cells at G2/M phase at 6 uM by PI staining based flow cytometric analysis (reference value: 11.5 %); format: functional
# A549 [29] = assay: Induction of apoptosis in human A549 cells assessed as necrotic cells at 1.5 uM by Annexin V-FITC/PI staining based flow cytometric analysis (reference value: 0.46 %); format: functional
# A549 [30] = assay: Induction of apoptosis in human A549 cells assessed as early apoptotic cells at 1.5 uM by Annexin V-FITC/PI staining based flow cytometric analysis (reference value: 0.32 %); format: functional
# A549 [31] = assay: Cytotoxicity against human A549 cells assessed as inhibition of cell growth; format: functional, cell-based
# A549 [32] = assay: Induction of ROS generation in human A549 cells assessed as fold change at 1.5 uM by DCFDA-H2 fluorescent dye based flow cytometric analysis relative to control; format: functional
# A549 [33] = assay: Induction of apoptosis in human A549 cells assessed as reduction in green intensity at 1.5 uM by acridine orange/EtBr staining based analysis; format: functional, cell-based
# A549 [34] = assay: Induction of apoptosis in human A549 cells assessed as increase in late apoptotic cells by measuring orange red signals at 1.5 uM by acridine orange/EtBr staining based analysis; format: functional, cell-based
# A549 [35] = assay: Induction of apoptosis in human A549 cells assessed as inhibition of Bcl-2 expression at 1.5 uM by PI staining based flow cytometric analysis relative to control; format: functional
# A549 [36] = assay: Induction of apoptosis in human A549 cells assessed as increase in yellowish green intensity at 1.5 uM by acridine orange/EtBr staining based analysis; format: functional, cell-based
# A549 [37] = assay: Induction of apoptosis in human A549 cells assessed as late apoptotic cells at 1.5 uM by Annexin V-FITC/PI staining based flow cytometric analysis (reference value: 0.19 %); format: functional
# A549 [38] = assay: Induction of apoptosis in human A549 cells assessed as increase in necrotic cells by measuring red signals at 1.5 uM by acridine orange/EtBr staining based analysis; format: functional, cell-based
# A549 [39] = assay: Cell cycle arrest in human A549 cells assessed as increase in G0/G1phase cell frequency at 1.5 uM by PI staining based flow cytometric analysis relative to control; format: functional
smiles,measurement,setting,value
COc1ccc(C(=O)CN2C(=O)S/C(=C\c3coc4cc(Br)ccc4c3=O)C2=O)cc1,fold change (FC),A549 [1],1.4
same,Activity,A549 [2],6.6%
same,Activity,A549 [3],2.2%
same,Activity,A549 [4],Active
same,fold change (FC),A549 [5],8.9
same,Activity,A549 [6],79.1%
same,Activity,A549 [7],Active
same,Activity,A549 [8],31.7%
same,Activity,A549 [9],Active
same,Activity,A549 [10],10.9%
same,Activity,A549 [11],Active
same,Activity,A549 [12],Active
same,Activity,A549 [13],Active
same,Activity,A549 [14],Active
same,Activity,A549 [15],0.3%
same,IC50,HCT-116,> 10 µM
same,Activity,A549 [16],1.94%
same,Activity,A549 [17],Active
same,Activity,A549 [18],0.29%
same,Activity,A549 [19],21.6%
same,fold change (FC),A549 [20],1.07
same,Activity,A549 [21],0.27%
same,Activity,A549 [22],18.08%
same,IC50,HepG2,> 10 µM
same,Activity,A549 [23],0.98%
same,IC50,A549 [24],6.1 µM
same,IC50,MCF7,8.9 µM
same,IC50 at 48 h,[25],14.1 µM
same,Activity,A549 [26],38.2%
same,IC50,SK-MEL-28,> 10 µM
same,Activity,A549 [27],3.1%
same,Activity,A549 [28],18.4%
O=C(CN1C(=O)S/C(=C\c2coc3ccccc3c2=O)C1=O)c1ccc(Cl)c(Cl)c1,IC50,HCT-116,> 10 µM
same,IC50,HepG2,> 10 µM
same,IC50,A549 [24],> 10 µM
same,IC50,MCF7,9.1 µM
same,IC50 at 48 h,[25],19.6 µM
same,IC50,SK-MEL-28,> 10 µM
COc1ccc(C(=O)CN2C(=O)S/C(=C\c3coc4ccccc4c3=O)C2=O)cc1,IC50,HCT-116,> 10 µM
same,IC50,HepG2,> 10 µM
same,IC50,A549 [24],8.8 µM
same,IC50,MCF7,> 10 µM
same,IC50 at 48 h,[25],168 µM
same,IC50,SK-MEL-28,> 10 µM
Cc1ccc2occ(/C=C3\SC(=O)N(CC(=O)c4ccc(Cl)cc4)C3=O)c(=O)c2c1,IC50,HCT-116,> 10 µM
same,IC50,HepG2,> 10 µM
same,IC50,A549 [24],6.3 µM
same,IC50,MCF7,8.9 µM
same,IC50 at 48 h,[25],15.2 µM
same,IC50,SK-MEL-28,> 10 µM
CC1(C)CCC(CN2CCN(c3ccc(C(=O)NS(=O)(=O)c4ccc(NCC5CCOCC5)c([N+](=O)[O-])c4)c(Oc4cnc5[nH]ccc5c4)c3)CC2)=C(c2ccc(Cl)cc2)C1 [VENETOCLAX],Activity,A549 [29],5.5%
same,Activity,A549 [30],1.5%
same,IC50,A549 [31],1.5 µM
same,fold change (FC),A549 [32],9.53
same,Activity,A549 [33],Active
same,Activity,A549 [34],Active
same,inhibition at 1.5 µM,A549 [35],61.7%
same,Activity,A549 [36],Active
same,Activity,A549 [37],4.9%
same,Activity,A549 [38],Active
same,Activity,A549 [39],6.9%
